Assay results from patent publication US11413280B2 (The Board of Trustees of the Leland Stanford Junior …, priority 2017, dated 2022).

How the values were obtained:
PASMC = test: MTT proliferation assay in PASMC; format: cell-based, human; details: siFHIT PASMC, Enzastaurin 5 M as printed
PAEC [1] = test: Matrigel tube formation assay; format: cell-based, human; details: FHIT- and BMPR2-deficient PAECs, 15 μM Enzastaurin for 24 hours
Procedure: (§1) Assays were conducted according to the manufacturer's instructions and as previously described(E1,E9).
(§2) Quantified area=% of cells that show nuclear γH2AX staining quantified with automated software (white nuclei=positive stain, grey nuclei=background stain). […] FIGS. 9G-9H, MTT proliferation assay in Enzastaurin-treated (0.5-50 M) in PASMC and PAEC, respectively. (n=3). FIGS. 9I-9J, MTT proliferation assay in Enzastaurin-treated (5 M) siFHIT and siBMPR2 transfected PASMC compared to Ntsi control, respectively. (n=3).
Loss of FHIT and BMPR2 impaired PAECs tube formation 6 hours after cells were seeded in a Matrigel tube formation assay(12) compared to cells treated with control Ntsi (FIG. 9A, FIG. 9B).

Caspase 3/7 in PAECs = test: Caspase-Glo 3/7 apoptosis assay; format: cell-based, human
Procedure: as §1, §2
(§3) As a cumulative viability measurement, we quantified caspase3/7 activity, using the luminescent Caspase-Glo®3/7 assay(36) and DNA damage, using histone H2AX phosphorylation by immunofluorescence and quantification as nuclear area staining (%) by confocal microscopy(34, 35, 37). […] PAEC proliferation was assessed via an MTT proliferation assay and hemocytometer cell counts(36).

PAEC [2] = test: MTT proliferation assay in PAEC; format: cell-based, human; details: Enzastaurin 0.5-50 M as printed
Procedure: as §1
Quantified area=% of cells that show nuclear γH2AX staining quantified with automated software (white nuclei=positive stain, grey nuclei=background stain). […] (n=3). […] (n=3).
as §3

PKC = PKC and p-PKC protein expression in lung tissue of SuHx rats (immunoblot); format: in vivo, rat; details: whole lung tissue, 5 mg/kg daily oral gavage
Procedure: Experimental PAH was induced in male Sasco Sprague Dawley rats by subcutaneous injection of 20 mg/kg body weight SU5416.

Cn1cc(C2=C(c3cn(C4CCN(Cc5ccccn5)CC4)c4ccccc34)C(=O)NC2=O)c2ccccc21 [Enzastaurin, 3-(1-methyl-1H-indol-3-yl)-4-[1-[1-(pyridin-2-ylmethyl)piperidin-4-yl]-1H-indol-3-yl]-1H-pyrrole-2,5-dione]
Increased PASMC proliferation induced by reductions in FHIT (MTT) (PASMC): rescued | Defects in tube formation (PAEC [1]): fully reversed the defects in tube formation | Caspase 3/7-mediated apoptosis in synchronised PAECs (Caspase 3/7 in PAECs; 24 hours, 5 μM or 15 μM Enzastaurin, 5 μM Ly333531 hydrochloride): decreases | Caspase 3/7 luminescence (apoptosis) in siBMPR2 and siFHIT PAEC (Caspase 3/7 in PAECs; t=48 h post-transfection, 15 μM Enzastaurin): decreased | PAEC proliferation (MTT) (PAEC [2]): no increase in PAEC proliferation was detected | PKC activation as measured by its phosphorylation (PKC): did not observe a significant decrease
